Reference: US10155027B2, “Alpha-galactosidase A and 1-deoxygalactonojirimycin co-formulation for the treatment of fabry disease” (Amicus Therapeutics, Inc., priority 2012, dated 2018)
Structures can show the parent of a compound that is named as a salt. Where two headings read alike, the source gives them in different places.

Key:
[1] = Phase 1 crossover absolute bioavailability, 150 mg oral capsule vs 150 mg IV infusion (Cohort 4); type: in vivo, human; conditions: for Vd: iv, 150 mg; for Cmax: read-out: Cmax (geometric mean); for AUC(0-t): read-out: AUC0-t (geometric mean); for AUC(0-inf): read-out: AUC0-∞ (geometric mean); for Tmax: read-out: tmax (median); for half-life: read-out: t½ (arithmetic mean) (converted)
Method: (§1) Healthy volunteers received migalastat HCl (DGJ HCl) via the intravenous (IV) route of administration to evaluate safety, tolerability, and pharmacokinetics. Another study was performed to determine the absolute bioavailability of migalastat after an oral capsule dose as compared to an IV administered dose of migalastat HCl in healthy volunteers. The absolute bioavailability arm was added to determine the exposure ratio of a 150 mg oral dose relative to a 150 mg dose administered as an IV infusion.
(§2) Type of Study: This Phase 1 study was a single-center study consisting of 2 designs. Cohorts 1, 2, and 3 were performed according to a randomized, double-blind, placebo-controlled, single ascending dose (SAD) IV study design to evaluate the safety, tolerability, and PK of IV administered migalastat HCl or IV administered placebo in healthy subjects. Cohort 4 was an open-label, randomized two-way crossover arm designed to assess the absolute bioavailability of orally administered migalastat HCl relative to IV administered migalastat HCl in healthy subjects.
Cohort 4 consisted of 2 sequential treatment periods with a washout period of 7 days between study drug administrations (FIG. 13). Cohort 4 enrolled 10 subjects all of whom received active drug (no placebo was administered). Cohort 4 was randomized such that 5 subjects received the oral formulation and 5 subjects received the IV formulation during Period 1, followed by the alternate formulation during Period 2. • * During Period 1, all Day −1 through Day 3 assessments were performed. ** The washout period was 7 days. *** During Period 2, subjects repeated all Day −1 through Day 3 assessments.
Cohort 4: Period 1: 150 mg migalastat HCl capsule (n=5) or 150 mg migalastat HCl via IV infusion (n=5). Period 2: 150 mg migalastat HCl capsule (n=5) or 150 mg migalastat HCl via IV infusion (n=5)
The migalastat HCl used for infusion was 50 mg/ml and the placebo was 0.9% sodium chloride. The oral migalastat HCl was administered as a 150 mg gelatin […].

[2] = Phase 2a study of oral migalastat HCl co-administered with agalsidase in Fabry patients; type: in vivo, human; conditions: 23 Fabry patients; single oral 150 mg with 0.2, 0.5, and 1.0 mg/kg agalsidase
[3] = General toxicology NOAEL, monkey; type: in vivo
[4] = Phase 1 single ascending dose 2-hour IV infusion PK in healthy subjects (Cohorts 1-3); type: in vivo, human; conditions: for Vd / AUC(0-t) / AUC(0-inf) / Tmax / half-life / Cmax: human, plasma; for Vd: iv; for AUC(0-t): read-out: AUC0-t (geometric mean)
Method: as §1, §2
Cohorts 1, 2, 3: Subjects in Cohorts 1, 2, and 3 received IV administered single ascending doses of migalastat HCl. Seven subjects were enrolled into each cohort (5 subjects randomized to migalastat HCl and 2 subjects randomized to placebo). Dosing of Cohorts 1, 2, and 3 was staggered to allow for safety and tolerability review before proceeding with the next group. Therefore, Cohorts 1, 2, and 3 were each divided into 2 sub-groups: Group A (2 subjects randomized to migalastat HCl and 1 subject randomized to placebo) and Group B (3 subjects randomized to migalastat HCl and 1 subject randomized to placebo). Subjects in Group B were dosed the day following completion of Group A dosing. Except for Cohort 3B, which was dosed 31 days after Cohort 3A because an interim PK review was performed on emerged data from Cohort 3A. Additionally, initiation of infusion was staggered by 60 minutes for Group A subjects, and by 30 minutes for Group B subjects (see FIG. 12).
Subjects enrolled in Cohorts 1, 2, and 3 were randomized to receive one of the following doses of migalastat HCl (n=5) or placebo (n=2): […]

[5] = General toxicology NOAEL, rat; type: in vivo
[6] = not given; remark: listed apart in the source
[7] = predicted human exposure at 0.3 mg/kg IV
[8] = predicted human exposure at 10.0 mg/kg IV
[9] = 1.0 mg/kg vs 0.3 mg/kg, theoretical 3.33
[10] = 10 mg/kg vs 0.3 mg/kg, theoretical 33.3
[11] = predicted exposure at 0.3 mg/kg IV
[12] = predicted exposure at 10.0 mg/kg IV

Structure (SMILES): OC[C@H]1NC[C@H](O)[C@@H](O)[C@H]1O [migalastat HCl, (2R,3S,4R,5S)-2-(hydroxymethyl) piperdine-3,4,5-triol]
- CLT (arithmetic mean) ([1]; 150 mg IV): 9.34 L/h
- geometric mean AUC0-t and AUC0-∞, IV relative to oral ([1]; 150 mg IV vs 150 mg oral): approximately 1.3 fold
- geometric mean Cmax, IV relative to oral ([1]; 150 mg IV vs 150 mg oral): approximately 1.9 fold
- maximum arithmetic mean plasma concentrations, IV relative to oral ([1]; 150 mg IV vs 150 mg oral): approximately 2 fold
- CLT/F (arithmetic mean) ([1]; 150 mg oral): 12.8 L/h
- absolute oral bioavailability based on AUC0-t (Percentage Test/Reference) ([1]; 150 mg oral vs 150 mg IV): 74.3%
- absolute oral bioavailability based on AUC0-∞ (Percentage Test/Reference) ([1]; 150 mg oral vs 150 mg IV): 74.6%
- Vd ([1]; human, plasma, 150 mg IV, read-out: Vss (arithmetic mean)): 30.2 L
- Vd ([1]; human, plasma, 150 mg IV, read-out: Vz (arithmetic mean)): 59.4 L
- Cmax ([1]; human, plasma, 150 mg IV, 2-hour infusion): 3380 ng/mL
- AUC(0-t) ([1]; human, plasma, 150 mg IV): 13200 ng·h/mL
- AUC(0-inf) ([1]; human, plasma, 150 mg IV): 13300 ng·h/mL
- Tmax ([1]; human, plasma, 150 mg IV): 1.93 h
- half-life ([1]; human, plasma, 150 mg IV): 4.54 h
- AUC(0-t) ([1]; human, plasma, 150 mg oral): 9780 ng·h/mL
- AUC(0-inf) ([1]; human, plasma, 150 mg oral): 9880 ng·h/mL
- Cmax ([1]; human, plasma, 150 mg oral): 1790 ng/mL
- Vd/F ([1]; human, plasma, 150 mg oral, read-out: Vz/F (arithmetic mean)): 123 L
- Tmax ([1]; human, plasma, 150 mg oral): 2.75 h
- half-life ([1]; human, plasma, 150 mg oral): 7.28 h
- tissue uptake of active α-Gal A into skin [2]: improved tissue uptake of active α-Gal A into skin
- AUC ([3]; monkey, in vivo, 500 mg/kg/day): 30600 ng·h/mL
- Cmax ([3]; monkey, in vivo, 500 mg/kg/day): 24500 ng/mL
- NOAEL ([3]; monkey, in vivo, general toxicology): 500 mg/kg/day
- Fold Cover to NOAEL AUC, Monkey [3, 7]: 165
- Fold Cover to NOAEL Cmax, Monkey [3, 7]: 68
- Fold Cover to NOAEL AUC, Monkey [3, 8]: 4.98
- Fold Cover to NOAEL Cmax, Monkey [3, 8]: 2.02
- CLT (arithmetic mean) ([4]; 0.3 mg/kg IV): 6.59 L/h
- CLT (arithmetic mean) ([4]; 1.0 mg/kg IV): 7.68 L/h
- Ratio Test/Reference, AUC0-t [4, 9]: 3.01
- Ratio Test/Reference, AUC0-∞ [4, 9]: 2.99
- Ratio Test/Reference, Cmax [4, 9]: 2.89
- CLT (arithmetic mean) ([4]; 10 mg/kg IV): 7.40 L/h
- Ratio Test/Reference, AUC0-t [4, 10]: 35.5
- Ratio Test/Reference, AUC0-∞ [4, 10]: 35.2
- Ratio Test/Reference, Cmax [4, 10]: 33.9
- dose proportionality of plasma exposure parameters ([4]; 0.3 to 10 mg/kg single ascending IV dose range): appeared to be dose proportional
- Vd ([4]; 0.3 mg/kg, 0.3 mg/kg IV, read-out: Vss (arithmetic mean)): 17.9 L
- Vd ([4]; 0.3 mg/kg, 0.3 mg/kg IV, read-out: Vz (arithmetic mean)): 19.9 L
- Vd ([4]; 1 mg/kg, 1.0 mg/kg IV, read-out: Vss (arithmetic mean)): 24.2 L
- Vd ([4]; 1 mg/kg, 1.0 mg/kg IV, read-out: Vz (arithmetic mean)): 35 L
- Vd ([4]; 10 mg/kg, 10 mg/kg IV, read-out: Vss (arithmetic mean)): 27.2 L
- Vd ([4]; 10 mg/kg, 10 mg/kg IV, read-out: Vz (arithmetic mean)): 107 L
- Vd ([4]; 0.3 to 10 mg/kg IV, read-out: Vss, range over doses): 17.9 to 27.2 L
- Vd ([4]; 0.3 to 10 mg/kg IV, read-out: arithmetic mean Vz, range over doses): 19.9 to 107 L
- AUC(0-t) ([4]; 0.3 mg/kg IV): 2280 ng·h/mL
- AUC(0-inf) ([4]; 0.3 mg/kg IV, read-out: AUC0-∞ (geometric mean)): 2320 ng·h/mL
- Tmax ([4]; 0.3 mg/kg IV, read-out: tmax (median)): 1.93 h
- half-life ([4]; 0.3 mg/kg IV, read-out: t½ (arithmetic mean) (converted)): 2.09 h
- AUC(0-t) ([4]; 1.0 mg/kg IV): 6860 ng·h/mL
- AUC(0-inf) ([4]; 1.0 mg/kg IV, read-out: AUC0-∞ (geometric mean)): 6920 ng·h/mL
- Tmax ([4]; 1.0 mg/kg IV, read-out: tmax (median)): 1.93 h
- half-life ([4]; 1.0 mg/kg IV, read-out: t½ (arithmetic mean) (converted)): 3.21 h
- AUC(0-t) ([4]; 10 mg/kg IV): 81100 ng·h/mL
- AUC(0-inf) ([4]; 10 mg/kg IV, read-out: AUC0-∞ (geometric mean)): 81400 ng·h/mL
- Tmax ([4]; 10 mg/kg IV, read-out: tmax (median)): 1.93 h
- half-life ([4]; 10 mg/kg IV, read-out: t½ (arithmetic mean) (converted)): 10 h
- half-life ([4]; 0.3 to 10 mg/kg IV, read-out: arithmetic mean apparent terminal t½, range over doses): 2.09 to 10 h
- AUC(0-inf) ([4]; 0.3 to 10 mg/kg IV, read-out: geometric mean AUC0-∞, range over doses): 2320 to 81400 ng·h/mL
- Cmax ([4]; 0.3 to 10 mg/kg IV, read-out: geometric mean Cmax, range over doses): 609 to 20700 ng/mL
- Tmax ([4]; dose levels of 0.3, 1.0, and 10 mg/kg IV, post start of infusion, read-out: median tmax): 1.93 h
- Cmax ([4]; 0.3 mg/kg IV, 2-hour infusion, read-out: Cmax (geometric mean)): 609 ng/mL
- Cmax ([4]; 1.0 mg/kg IV, 2-hour infusion, read-out: Cmax (geometric mean)): 1760 ng/mL
- Cmax ([4]; 10 mg/kg IV, 2-hour infusion, read-out: Cmax (geometric mean)): 20700 ng/mL
- Fold Cover to NOAEL AUC, Rat [5, 7]: 134
- Fold Cover to NOAEL Cmax, Rat [5, 7]: 65
- Fold Cover to NOAEL AUC, Rat [5, 8]: 4.05
- Fold Cover to NOAEL Cmax, Rat [5, 8]: 1.93
- AUC ([5]; rat, in vivo, 1500 mg/kg/day): 24900 ng·h/mL
- Cmax ([5]; rat, in vivo, 1500 mg/kg/day): 23400 ng/mL
- NOAEL ([5]; rat, in vivo, general toxicology): 1500 mg/kg/day
- Fold Cover to AUC from human oral 1250 mg, Max [11]: 62
- Fold Cover to AUC from human oral 1250 mg, Median [11]: 39
- Fold Cover to AUC from human oral 1250 mg, Min [11]: 15.5
- Fold Cover to Cmax from human oral 1250 mg, Max [11]: 61
- Fold Cover to Cmax from human oral 1250 mg, Median [11]: 36
- Fold Cover to Cmax from human oral 1250 mg, Min [11]: 2.6
- Fold Cover to AUC from human oral 1250 mg, Max [12]: 1.89
- Fold Cover to AUC from human oral 1250 mg, Median [12]: 1.19
- Fold Cover to AUC from human oral 1250 mg, Min [12]: 0.47
- Fold Cover to Cmax from human oral 1250 mg, Max [12]: 1.81
- Fold Cover to Cmax from human oral 1250 mg, Median [12]: 1.07
- Fold Cover to Cmax from human oral 1250 mg, Min [12]: 0.08
- tolerability ([6]; oral 150 mg capsule, healthy volunteers and Fabry patients): well tolerated
- linearity of exposure ([6]; oral administrations): linear exposures to 1250 mg
- tolerability ([6]; single dose administrations up to 2000 mg, healthy volunteers, Phase 1): well tolerated
